Measurements: patent publication US4246280A, “20-Alkoxy-16-alkyl-prostadienoic acid derivatives” (priority 1974, dated 1981)

How the values were obtained:
[1] = Diarrhea-producing effect, oral, guinea-pigs; conditions: guinea pig, in vivo, 2hr to next morning, read-out: (A) Diarrhea-producing effect (b), ED50
Method: II. Diaarrhea-producing effect
Test compounds were administered orally to guinea-pigs. The appearance of diarrhea (loose or watery feces) at 2hr, 3hr, 4hr, 5hr and next morning was noted.

[2] = Antiasthmatic effect, oral (protection against histamine spray 30 min after oral administration in guinea-pigs); format: in vivo; conditions: for ED50: Cavia porcellus, 0.5 h, read-out: Antiasthmatic effect, Oral (a), ED50; for b/a: ratio of diarrhea ED50 (b) to oral antiasthmatic ED50 (a)
Method: Guinea-pigs were sprayed for 10 sec with histamine 30 min after oral administration of test compounds and observed for 3 min. The percent of aminals protected was determined.

[3] = Effect on air-way resistance (Konzett and Rossler; histamine-induced broncho-constriction, intraduodenal administration); format: in vivo, guinea-pig; conditions: Cavia porcellus, 0.5 h, read-out: (B) Effect on airway resistance, ED50
Method: III. Effect on air-way resistance
The air-way resistance of the guinea-pig lung was determined by the method of Konzett and Rossler (Arch. exp. Path. Pharmak., 195, 71-74(1940)). The bronchorelaxing activity of prostaglandins were expressed in terms of protective effect against broncho-constriction elicited by intravenous injection of histamine (3 μg/kg). Histamine was injected 30 min after intraduodenal administration of test compound to urethane anesthetized and artificially ventilated guinea-pigs.

[4] = Antiasthmatic effect, aerosol (protection against sneezing induced by histamine aerosol in guinea-pigs); format: in vivo; conditions: aerosol of test compound 15 sec, histamine 0.1% aerosol
Method: Guinea-pigs were placed in a chamber and sprayed for 10 sec with an aerosol of histamine solution (0.1%) and onset of sneezing was recorded and animals with control time of 70-100 sec were selected. These animals were sprayed for 15 sec with an aerosol of test compounds. After 45 sec, sprayed histamine and observed for 3 min it was. […] The percent of animals protected was determined.

[5] = guinea-pigs, oral, histamine 30 min after administration

## COCCCC[C@H](C)C(O)/C=C/[C@H]1[C@H](O)CC(=O)[C@@H]1C/C=C\CCCC(=O)O (stereo partly drawn) [Example 6, 11α,15-dihydroxy-20-methoxy-16(S)-methyl-9-oxo-5(cis)-13(trans)prostadienoic acid]
[1]
  TD50: 0.14 mg/kg
[2]; po
  ED50: 0.71 mg/kg
[2]
  b/a: 20.0

## COCCCCC(C)C(O)/C=C/[C@H]1[C@H](O)CC(=O)[C@@H]1C/C=C\CCCC(=O)O (stereo partly drawn) [Example 3, 11α,15-dihydroxy-20-methoxy-16-methyl-9-oxo-5(cis)-13(trans)prostadienoic acid]
[1]
  TD50: 0.12 mg/kg
[3]
  ED50: 0.0135 mg/kg
[2]; po
  ED50: 0.0098 mg/kg
[2]
  b/a: 12.2
[4]
  Antiasthmatic effect, Aerosol, ED50: 0.037 µg/mL

## CCCC[C@@H](C)C(O)/C=C/[C@H]1[C@H](O)CC(=O)[C@@H]1C/C=C\CCCC(=O)O (stereo partly drawn) [11α,15-dihydroxy-16(R)-methyl-9-oxo-5(cis)-13(trans)prostadienoic acid]
[1]
  TD50: 0.025 mg/kg
[2]; po
  ED50: 0.0175 mg/kg
[2]
  b/a: 1.43
[4]
  Antiasthmatic effect, Aerosol, ED50: 0.011 µg/mL

## COCCCCC(C)C(O)/C=C/[C@H]1[C@H](O)CC(=O)[C@@H]1C/C=C\CCCC(=O)OC (stereo partly drawn) [Example 7 ([α]D^25-66.4°), 11α,15-dihydroxy-20-methoxy-16-methyl-9-oxo-5(cis)-13(trans)prostadienoic acid methyl ester]
[1]
  TD50: 0.051 mg/kg
[2]; po
  ED50: 0.0053 mg/kg
[2]
  b/a: 9.62

## COCCCC[C@H](C)C(O)/C=C/[C@H]1[C@H](O)CC(=O)[C@@H]1C/C=C\CCCC(=O)OC (stereo partly drawn) [Example 7 ([α]D^25-58.0°), 11α,15-dihydroxy-20-methoxy-16(S)-methyl-9-oxo-5(cis)-13(trans)prostadienoic acid methyl ester]
[1]
  TD50: 0.145 mg/kg
[2]; po
  ED50: 0.016 mg/kg
[2]
  b/a: 9.06

## CCCCC[C@H](O)/C=C/[C@H]1[C@H](O)CC(=O)[C@@H]1C/C=C\CCCC(=O)O [Prostaglandin E2]
[3]; guinea-pigs, intraduodenal, histamine 3 μg/kg i.v. 30 min later
  ED50: > 0.8 mg/kg
[2]; [5]
  ED50: > 0.8 mg/kg
[2]; guinea-pigs, oral
  antiasthmatic effect upon oral administration (in words): no antiasthmatic effect upon oral administration
[4]
  Antiasthmatic effect, Aerosol, ED50: 0.15 µg/mL

## COCCCCCC(O)/C=C/[C@H]1[C@H](O)CC(=O)[C@@H]1C/C=C\CCCC(=O)O (stereo partly drawn) [20-methoxy-PGE2, 11α,15-dihydroxy-20-methoxy-9-oxo-5(cis)-13(trans)prostadienoic acid]
[2]; [5]
  ED50: > 0.8 mg/kg
[2]; guinea-pigs, oral
  antiasthmatic effect upon oral administration (in words): no antiasthmatic effect upon oral administration
[4]
  Antiasthmatic effect, Aerosol, ED50: 0.15 µg/mL

## CCCCC(C)C(O)/C=C/[C@H]1[C@H](O)CC(=O)[C@@H]1C/C=C\CCCC(=O)O (stereo partly drawn) [11α,15-dihydroxy-16-methyl-9-oxo-5(cis)-13(trans)prostadienoic acid]
[1]
  TD50: 0.1 mg/kg
[2]; po
  ED50: 0.025 mg/kg
[2]
  b/a: 4.0
[4]
  Antiasthmatic effect, Aerosol, ED50: 0.009 µg/mL
